Reference: patent publication US4181714A (priority 1977, dated 1980)

What was measured:
blast of rice = settings: commercially available antibiotic chemical; cited from earlier work
Pyricularia oryzae = type: in vivo; settings: blast of rice, 20 ppm in sprayed dilution
[1] = test system: Colletotrichum lagenarium; assay: Test on control effect on anthracnose in cucumber; type: in vivo; settings: 1000 ppm in sprayed composition
Protocol: Cucumber seedlings (Sagami Hanpaku variety) planted one plant per pot were used for the test, and each test area included three pots. After seeding was carried out by using Kureha Soil, the pots were kept for 2 weeks in an air-conditioned green house (maximum daytime temperature=28° C., minimum night temperature=20° C., light illumination time=12 hours per day, light source=sunglow lamp) to grow the cucumber plants.
A chemical composition having a predetermined concentration, which was prepared according to the method described in Example 3 was sprayed on the plants by a spray gun and the plants were air-dried for 2 hours in a green house.
Spores of a pathogenic fungus causing anthracnose in cucumber (Colletotrichum lagenarium), which had been cultured for 10 days at 23° C. in an agar slant culture medium of sweet corn, were taken into sterilized water, and one drop of a spreader was added to 50 cc of the spore suspension. In an inoculation box, the spore suspension was sprayed on the plants in an amount of 50 cc per 50 seedling by a spray gun to effect inoculation. […]
The total number of disease spots on leaves of the plants of each area was counted and the control value was calculated according to the following formula: [formula]

plants = assay: Phytotoxicity (general statement); type: in vivo

Molecule	Specificity of controlling effect (blast of rice)	Control Value (Pyricularia oryzae)	Control Value [1]	Phytotoxicity (plants)
CN(CC[C@H](N)CC(=O)N[C@H]1C=C[C@H](n2ccc(N)nc2=O)O[C@@H]1C(=O)O)C(=N)N [Blasticidin S, blasticidinS-benzylaminobenzene-sulfonate]	specific effect on blast of rice alone	95%		
manganous ethylene1,2-bis-dithiocarbomate- [Maneb-Dithane]			95%	causes phytotoxicity
